From ChEMBL document CHEMBL5505996, “Discovery of novel osthole derivatives exerting anti-inflammatory effect on DSS-induced ulcerative colitis and LPS-induced acute lung injury in mice” (Eur J Med Chem, 2024)
pIC50: −log10 of the molar value. In brackets after ≈: the same amount, converted by molar mass. Activity calls are given as the source filed them. The calls are words filed in the database; no cut-off is given here.

What was measured:
J774.A1 [1] = test: Antiinflammatory activity against LPS-induced mouse J774.A1 cells assessed as inhibition of IL-6 release at 10 uM pretreated for 30 mins followed by LPS stimulation and measured after 24 hrs by ELISA relative to control; type: functional; conditions: time 24.5 hrs
[2] = Aqueous solubility of compound in phosphate buffer at pH 7.4 measured after 24 hrs by HPLC analysis; type: physicochemical
J774.A1 [3] = test: Antiinflammatory activity against LPS-induced mouse J774.A1 cells assessed as inhibition of IL-6 release pretreated for 30 mins followed by LPS stimulation and measured after 24 hrs by ELISA; type: functional, cell-based
J774.A1 [4] = test: Antiinflammatory activity against LPS-induced mouse J774.A1 cells assessed as inhibition of TNF-alpha release pretreated for 30 mins followed by LPS stimulation and measured after 24 hrs by ELISA; type: functional, cell-based
THP-1 = test: Antiinflammatory activity against LPS-induced PMA-differentiated human THP-1 cells assessed as inhibition of TNF-alpha release pretreated for 30 mins followed by LPS stimulation and measured after 24 hrs by ELISA; type: functional, cell-based
RAW264.7 = test: Potency index, ratio of osthole IC50 to test compound IC50 for antiinflammatory activity against LPS-induced mouse RAW264.7 cells assessed as inhibition of IL-6 release pretreated for 30 mins followed by LPS stimulation and measured after 24 hrs by ELISA; type: functional; conditions: time 24.5 hrs
[5] = Acute toxicity in ICR mouse assessed as reduction in body weight at 500 mg/kg, po measured daily for 10 days; type: organism-based; conditions: in vivo, 240 h, time 10 day
[6] = Acute toxicity in ICR mouse assessed as pathological changes in heart at 500 mg/kg, po measured daily for 10 days by H and E staining based analysis; type: organism-based; conditions: in vivo, 240 h, time 10 day
[7] = Acute toxicity in ICR mouse assessed as pathological changes in liver at 500 mg/kg, po measured daily for 10 days by H and E staining based analysis; type: organism-based; conditions: in vivo, 240 h, time 10 day
J774.A1 [8] = test: Inhibition of NFkappaB signaling pathway in LPS-induced mouse J774.A1 cells assessed as reduction in IkappaBalpha degradation pretreated for 2 hrs followed by LPS stimulation and measured after 30 mins by Western blot analysis; type: cell-based; conditions: time 2.5 hrs
J774.A1 [9] = test: Inhibition of MAPK signaling pathway in LPS-stimulated mouse J774.A1 cells assessed as reduction in JNK phosphorylation at 10 uM pretreated for 2 hrs followed by LPS stimulation and measured after 30 mins by Western blot analysis; type: cell-based; conditions: time 2.5 hrs
Mus musculus [10] = test: Antiinflammatory activity against C57BL/6 mouse model of DSS induced ulcerative colitis assessed as reduction in inflammatory cytokines infiltration in intestine at 20 mg/kg, po administered daily for 10 days by immunohistochemical staining based analysis; type: functional, organism-based; conditions: time 10.0 day
Mus musculus [11] = test: Antiinflammatory activity against C57BL/6 mouse model of LPS induced acute lung injury assessed as reduction in pulmonary edema by measuring reduction in lung wet/dry ratio at 20 mg/kg, po administered every 12 hrs for 3 times followed by LPS stimulation for 6 hrs starting from 30 mins post last dose; type: functional, organism-based; conditions: time 42.5 hrs
Mus musculus [12] = test: Antiinflammatory activity against C57BL/6 mouse model of LPS induced acute lung injury assessed as reduction in IL-6 level in serum at 20 mg/kg, po administered every 12 hrs for 3 times followed by LPS stimulation for 6 hrs starting from 30 mins post last dose by ELISA; type: functional, organism-based; conditions: time 42.5 hrs
Mus musculus [13] = test: Antiinflammatory activity against C57BL/6 mouse model of LPS induced acute lung injury assessed as reduction in TNF-alpha mRNA expression in lung at 20 mg/kg, po administered every 12 hrs for 3 times followed by LPS stimulation for 6 hrs starting from 30 mins post last dose by RT-qPCR analysis; type: functional, organism-based; conditions: time 42.5 hrs

**Q.** For `CC(C)=CCc1c(OCCCCNCCN2CCOCC2)ccc2ccc(=O)oc12`, which inhibition at 10 µM (J774.A1 [1]) is on record?
**A.** The inhibition at 10 µM was 95%.

**Q.** What about the solubility at 24 h [2] of the same molecule?
**A.** The solubility at 24 h was 340 µg/mL (≈ 820 µM).

**Q.** And the pIC50 (J774.A1 [3])?
**A.** Its pIC50 is 5.37.

**Q.** And the Activity (J774.A1 [3]; time 24.5 hrs)?
**A.** The Activity was “Dose-Dependent Effect”.

**Q.** What about the pIC50 (J774.A1 [4]) of the same molecule?
**A.** Its pIC50 is 4.74.

**Q.** And the pIC50 (THP-1)?
**A.** Its pIC50 is 4.56.

**Q.** And the “Ratio IC50” value (RAW264.7)?
**A.** Its value is 32.

**Q.** What about the Activity [5] of the same molecule?
**A.** Its Activity is “Non-Toxic”.

**Q.** What about the Activity [6] of the same molecule?
**A.** The Activity was “Non-Toxic”.

**Q.** And the Activity [7]?
**A.** Its Activity is “Non-Toxic”.

**Q.** And the inhibition (J774.A1 [8])?
**A.** Its inhibition is “inactive”.

**Q.** What about the inhibition (J774.A1 [9]) of the same molecule?
**A.** Its inhibition is “Active”.

**Q.** And the Activity (Mus musculus [10])?
**A.** Its Activity is “Active”.

**Q.** And the Activity (Mus musculus [11])?
**A.** Its Activity is “Active”.

**Q.** And the Activity (Mus musculus [12])?
**A.** The Activity was “Active”.

**Q.** What about the Activity (Mus musculus [13]) of the same molecule?
**A.** Its Activity is “Active”.
